{"source": "patent US12478677B2", "about": "“Tunable luminescent organic salts for enhanced imaging and photodynamic therapy” (BOARD OF TRUSTEES OF MICHIGAN STATE UNIVERSITY, priority 2017, dated 2025)", "key": {"A549 cells": {"test_system": "A549 cells", "experiment": "Viability studies (trypan blue staining and cell counting) with or without IR excitation", "type": "cell-based, human", "conditions": "for Concentration at which cytotoxic: cells, toxic at low concentration, even without IR light; for IC50: linear regression analysis; for Phototoxicity with IR excitation, in words: IR (850 nm) excitation; for Toxicity in words, dark and light: with or without IR (850 nm) excitation; for Toxicity in the dark, in words: without IR excitation", "description": "The cell lines human lung carcinoma (A549), metastatic human melanoma (WM1158) and Vemurafenib-resistant melanoma (Sk-Mel-28-Vem^R) are used. Sk-Mel-28-Vem^R is generated by culturing a parental melanoma cell lines in the presence of 2 μM Vemurafenib for 2 months. Acquired Vemurafenib resistance is defined by >1 log change in IC50 between nonresistant and resistant cell lines. Resistance is maintained through media supplementation with 2 μM Vemurafenib, which is changed every 48 hours. All cells are cultured in DMEM without pyruvate with 10% heat inactivated fetal bovine serum supplemented with glutamine and penicillin/streptomycin, and incubated in 37° C. with 5% CO2.\nA549 and WM1158 cells are seeded at a density of 50,000 cells per well in 6-well tissue culture plates. After 24 hours of incubation, media is aspirated and replaced with media containing luminescent dyes at indicated concentrations. Each well is irradiated with an 850 nm LED lamp with an illumination rate of 526 mW/cm^2 for an hour in the incubator, and control cells are left in a dark incubator without irradiation. For studies with Cy7, a 740 nm LED lamp is used instead of an 850 nm, but with a similar illumination flux. Immediately after irradiation, the media is replenished with fresh dye-laced media and allowed to incubate for another 24 hours. […] Viable cell number is determined at 24 and 96 hours using trypan blue staining and a Nexcelom Cellometer Auto T4 cell counter. All assays are done with 3 biological replicates. The fold change in cell proliferation over days of treatment was calculated using the following equation."}, "[1]": {"experiment": "Absorption and emission spectra", "type": "physicochemical", "description": "FIGS. 8A-8F. Non-toxic cation-anion pair enhances live cell IR fluorescence imaging. FIG. 8A is a graph showing tunable organic salts absorb and emit in the IR (700-1200 nm) and eliminate background noise from absorbance/emission tissue components such as melanin, water, oxyhemoglobin (Hb-O2) and hemoglobin (Hb). […] A549 cells were incubated with vehicle, 1 μM CyPF6, or 1 μM CyTPFB with or without IR (850 nm) excitation. Cell viability determined by trypan blue staining and cell counting. (D) CyTPFB staining in A549 cells. (E) DNA staining using 4',6-diamidino-2-phenylindole (DAPI). (F) Superimposed CyTPFB+DAPI staining. Effective fluorescence dyes must be non-toxic for live cell imaging. […] Further developed are luminescent dyes that absorb and emit in the optical tissue window for imaging without background absorption/emission from components of tissue such as water, hemoglobin, and melanin, as shown in FIG. 8A. Heptamethine cyanine (Cy^+) is a photoactive cation that absorbs and emits in IR wavelengths, with an excitation/emission maximum of 830/848 nm, as shown in FIG. 8B. The deeper excitation and emission of Cy^+ provide an advantage over Cy7 (excitation/emission maximum of 750/773 nm), allowing imaging at greater tissue depths. […] Imaging live cells with these toxic cation-anion pairs requires usage of low doses that result in low absorbance and emission, resulting in poor quality images. […] CyTPFB is non-toxic to cells even at greater than 20-fold higher concentrations of 20 μM. The non-toxic nature of CyTPBF allows use of high doses in eukaryotic and prokaryotic cells for enhanced IR imaging with greater brightness, as shown in FIGS. 8D-8F for a eukaryotic cell example."}, "[2]": {"experiment": "Salt integrity and aggregation in cell media (mass spectrometry, electron microscopy, UV-Vis)", "type": "physicochemical", "conditions": "for Integrity of salt pairing in cellular environments: high resolution mass spectrometry, electron microscopy, UV-Vis spectroscopy", "from_the_text": "FIGS. 7A-7C. […] Organic salts were first dissolved in DMSO and then diluted in water, forming nanoparticles. […] Combinations of H- and J-aggregation of organic salts can be seen by blue-shifted peaks (lower wavelength) and red-shifted peaks (higher wavelength), respectively. The nanoparticles with small hard anions redissolve in cell media likely due to sterics. […] This is achieved by cation-anion pairs of luminescent organic salts that can be modulated to be either non-toxic for enhanced imaging, or phototoxic for improved PDT. […] IR polymethine cyanine dyes, which have been used as effective theranostics are described. […] This is thought to occur through a mechanism mitigated by tumor vascularization, increased retention in cancer cells, and mitochondrial depolarization. Once in the cell, they accumulate in the mitochondria and lysosomes, where irradiation induces generation of cytotoxic oxygen species. A strategy is described for preventing or inhibiting salt dissociation in cells: aggregates are formed via introduction of the salt into an aqueous media by a solvent vehicle, forming particles with diameters of about 5 nm in size with no precipitation observed. […] This is confirmed by high resolution mass spectrometry, electron microscopy, and UV-Vis spectroscopy. […] Normalized absorption data are sown in FIGS. 7A, 7B, and 7C. This is likely due to steric effects, where if the counterion radius is too small it is not able to protect the nanoparticle stability. This can be characterized by the volume-averaged effective spherical radius of the counterions, where the cutoff is at about 0.275 nm."}, "mitochondrial superoxide": {"test_system": "mitochondrial superoxide", "experiment": "MitoSOX measurement of mitochondrial superoxide", "type": "cell-based, human", "conditions": "A549 cells treated 4 days at phototoxic concentrations; with or without light", "from_the_text": "FIG. 22. Luminescent organic salts generate mitochondrial ROS. […] MitoSOX is used to measure mitochondrial superoxide, and H2DCFDA for general cytoplasmic ROS in A549 cell treated with organic salts at indicated phototoxic concentrations for 4 days.\nPhotoactive agents accumulate in the mitochondria of cancer cells and generate reactive oxygen species (ROS) with light exposure, depolarizing the mitochondrial membrane potential to cause cell death. Small molecule protective agents that quench ROS have been used to decrease their phototoxicity. However, the exact type of ROS generated by each luminescent agent remains unclear. Photo-induced ROS include singlet oxygen, superoxide radical anion, hydrogen peroxide, hydroxyl radical and others (see FIG. 21). Superoxide is a highly reactive and biologically toxic species deployed in nature to kill invading organisms. It is often formed as a byproduct of mitochondrial respiration but is typically quenched by the highly efficient superoxide dismutase. Hydroxyl radicals are also highly reactive, damaging nearly all forms of biological molecules. Unlike superoxide radical, the hydroxyl radical cannot be easily quenched naturally via enzymes, and endogenous antioxidants are typically required. Singlet oxygen is the excited state of the common triplet oxygen (O2 ground state) and is highly reactive towards organic compounds. Singlet oxygen can be eliminated in mammalian systems by antioxidants. A range of nitroxy radicals can subsequently stem from superoxide (peroxynitrite) or peroxide (nitrogen dioxide) species. […] Each luminescent cation-anion pair generates specific ROS resonant with its own energy level, and cell types can be targeted by generating the key sensitizing ROS. For example, it is expected that CyFPhB is phototoxic (see FIGS. 11A and 11B and 12A and 12B) by generating reactive oxygen species, which can be resonant with its molecular orbital energy levels (FIG. 21). […] No cytoplasmic ROS is detected using general cytoplasmic ROS probe H2DCFDA. […]"}, "[3]": {"experiment": "In vivo imaging, organ and tumor localization in orthotopic breast cancer mouse model", "conditions": "1 mg/kg intraperitoneal, after 72 hours", "description": "Mice are dosed with 1 mg/kg of organic salt in PBS (phosphate buffered saline) via intraperitoneal injection. Live imaging is performed by anesthetizing the mice with 3% isofluorane and using a Leica M165FC microscope with a PE4000 LED light source, DFC9000GT camera, and LAS X imaging software. For internal imaging, mice are sacrificed once tumors reach a size of 20 mm^3 and organs of interest are retrieved and imaged using the system described previously."}, "[4]": {"conditions": "A549 cells, 850 nm irradiation, read-out: IC50 850 nm"}, "[5]": {"conditions": "A549 cells, dark, no irradiation, read-out: IC50 Dark"}}, "note": "“Also recorded” adds a separate entry of the source. Read-outs that look alike come from different tables or passages of the source."}
{"smiles": "C[N+]1=C(C=CC2=CC(=CC=C3N(CCCCCC(=O)ON4C(=O)CCC4=O)c4ccccc4C3(C)C)CCC2)C(C)(C)c2ccccc21.[Cl-]", "note": "[Cy7, Cyanine7 NHS ester, reference compound]", "values": [{"measurement": "Toxicity of Cy7 salts, in words", "setting": "A549 cells; A549 cells, with or without IR (740 nm) excitation", "value": "highly cytotoxic"}, {"measurement": "Concentration at which cytotoxic", "setting": "A549 cells", "value": 1, "unit": "µM"}, {"measurement": "Emission maximum", "setting": "[1]", "value": 773, "unit": "nm"}, {"measurement": "Excitation maximum", "setting": "[1]", "value": 750, "unit": "nm"}]}
{"smiles": "CCN1C(=CC=C2CCCC(C=CC3=[N+](CC)c4ccc5ccccc5c4C3(C)C)=C2Cl)C(C)(C)c2c1ccc1ccccc21.Fc1ccc([B-](c2ccc(F)cc2)(c2ccc(F)cc2)c2ccc(F)cc2)cc1", "note": "[CyFPhB]", "values": [{"measurement": "Aggregation / nanoparticle behaviour in cell media, in words", "setting": "[2]; cell media", "value": "forms small photoactive nanoparticles in cell media"}, {"measurement": "Average nanoparticle size in cell media", "setting": "[2]; cell media", "value": "< 10", "unit": "nm"}, {"measurement": "Integrity of salt pairing in cellular environments", "setting": "[2]", "value": "maintained in cellular environments"}, {"measurement": "IC50", "setting": "A549 cells; [4]", "value": 3.5, "unit": "µM"}, {"measurement": "Phototoxicity with IR excitation, in words", "setting": "A549 cells; A549 cells", "value": "most phototoxic; also recorded: cause significant cell death with IR excitation; also recorded: highly phototoxic"}, {"measurement": "Phototoxicity with IR excitation, in words", "setting": "A549 cells; A549 cells, listed as Cy^+ paired with FPhB", "value": "phototoxic"}, {"measurement": "IC50", "setting": "A549 cells; [5]", "value": 46, "unit": "µM"}, {"measurement": "Toxicity in words, dark and light", "setting": "A549 cells; A549 cells", "value": "phototoxic but not cytotoxic; also recorded: phototoxic (but not cytotoxic)"}, {"measurement": "Toxicity in the dark, in words", "setting": "A549 cells; A549 cells", "value": "allow cell growth in the dark"}, {"measurement": "Toxicity in the dark, in words", "setting": "A549 cells; A549 cells, listed as Cy^+ paired with FPhB^−", "value": "deactivates the dark cellular toxicity"}, {"measurement": "Mitochondrial superoxide / ROS generation (MitoSOX), in words", "setting": "mitochondrial superoxide", "value": "photo-generating ROS only with illumination; also recorded: photo-generating superoxide only with illumination"}]}
{"smiles": "CCN1C(=CC=C2CCCC(C=CC3=[N+](CC)c4ccc5ccccc5c4C3(C)C)=C2Cl)C(C)(C)c2c1ccc1ccccc21.F[P-](F)(F)(F)(F)F", "note": "[CyPF6]", "values": [{"measurement": "Aggregation / nanoparticle behaviour in cell media, in words", "setting": "[2]; cell media", "value": "lack of aggregation observed in cell media"}, {"measurement": "IC50", "setting": "A549 cells; [4]", "value": 0.89, "unit": "µM"}, {"measurement": "IC50", "setting": "A549 cells; [5]", "value": 1.6, "unit": "µM"}, {"measurement": "Toxicity in words, dark and light", "setting": "A549 cells; A549 cells", "value": "toxic both in the dark and under IR (850 nm) illumination; also recorded: cytotoxic"}, {"measurement": "Toxicity in the dark, in words", "setting": "A549 cells; A549 cells", "value": "cytotoxic"}, {"measurement": "Concentration at which cytotoxic", "setting": "A549 cells", "value": "< 2.5", "unit": "µM"}, {"measurement": "Concentration at which cytotoxic", "setting": "A549 cells; listed as Cy+ paired with PF6^−", "value": 1.6, "unit": "µM"}, {"measurement": "Mitochondrial superoxide / ROS generation (MitoSOX), in words", "setting": "mitochondrial superoxide", "value": "catalyzing superoxide with or without light"}, {"measurement": "Localization in tumor versus other organs", "setting": "[3]", "value": "concentration of the organic salt to the tumor"}]}
{"smiles": "CCN1C(=CC=C2CCCC(C=CC3=[N+](CC)c4ccc5ccccc5c4C3(C)C)=C2Cl)C(C)(C)c2c1ccc1ccccc21.FC(F)(F)c1cc([B-](c2cc(C(F)(F)F)cc(C(F)(F)F)c2)(c2cc(C(F)(F)F)cc(C(F)(F)F)c2)c2cc(C(F)(F)F)cc(C(F)(F)F)c2)cc(C(F)(F)F)c1", "note": "[CyTFM]", "values": [{"measurement": "Integrity of salt pairing in cellular environments", "setting": "[2]", "value": "maintained in cellular environments"}, {"measurement": "IC50", "setting": "A549 cells; [4]", "value": 29, "unit": "µM"}, {"measurement": "IC50", "setting": "A549 cells; [5]", "value": 125, "unit": "µM"}, {"measurement": "Toxicity in words, dark and light", "setting": "A549 cells; A549 cells", "value": "not toxic to cells in the dark and in the light"}, {"measurement": "Toxicity in the dark, in words", "setting": "A549 cells; A549 cells", "value": "deactivates the dark cellular toxicity"}]}
{"smiles": "CCN1C(=CC=C2CCCC(C=CC3=[N+](CC)c4ccc5ccccc5c4C3(C)C)=C2Cl)C(C)(C)c2c1ccc1ccccc21.Clc1c(Cl)c(Cl)c2c(c1Cl)O[P-]13(O2)(Oc2c(Cl)c(Cl)c(Cl)c(Cl)c2O1)Oc1c(Cl)c(Cl)c(Cl)c(Cl)c1O3", "note": "[CyTRIS]", "values": [{"measurement": "Integrity of salt pairing in cellular environments", "setting": "[2]", "value": "maintained in cellular environments"}, {"measurement": "IC50", "setting": "A549 cells; [4]", "value": 1200, "unit": "µM"}, {"measurement": "IC50", "setting": "A549 cells; [5]", "value": 1220, "unit": "µM"}, {"measurement": "Toxicity in words, dark and light", "setting": "A549 cells; A549 cells", "value": "not toxic to cells in the dark and in the light"}, {"measurement": "Toxicity in the dark, in words", "setting": "A549 cells; A549 cells", "value": "deactivates the dark cellular toxicity"}]}
{"smiles": "CCN1C(=CC=C2CCCC(C=CC3=[N+](CC)c4ccc5ccccc5c4C3(C)C)=C2Cl)C(C)(C)c2c1ccc1ccccc21", "note": "[Cy^+, 2-[2-[2-chloro-3-[2-(1,3-dihydro-3,3-dimethyl-1-ethyl-2H-benz[e]indol-2-ylidene)ethylidene]-1-cylohexen-1-yl]-ethenyl]-3,3-dimethyl-1-ethyl-1H-benz[e]indolium]", "values": [{"measurement": "Emission maximum", "setting": "[1]", "value": 848, "unit": "nm"}, {"measurement": "Excitation maximum", "setting": "[1]", "value": 830, "unit": "nm"}]}
{"smiles": "[I-].[K+]", "note": "[KI, reference compound]", "values": [{"measurement": "Toxicity in words, dark and light", "setting": "A549 cells; A549 cells", "value": "not toxic; also recorded: does not cause toxicity in the dark or with light"}]}
